These results are taken from publication PMC6438731, “Extrasynaptic δ‐GABAA receptors are high‐affinity muscimol receptors” (Journal of Neurochemistry, 2019).

A word on the Kd: it is the concentration at which binding is half-saturated.

Assay [1] concerns the target T1, α6β3δ recombinant GABAA receptor (Rattus norvegicus, UniProt P30191+P63079).
T1 construct: expressed in transfected cells; host or cells: HEK293 (ATCC CRL-1573), pRK5 plasmids, membranes
The assay is described as follows: [^3H]muscimol binding kinetics, recombinant α6β3δ in HEK293 membranes. An excerpt:
Human embryonic kidney (HEK) 293 cells (ATCC Cat# CRL‐1573; RRID: CVCL_0045; a commonly misidentified cell line by ICLAC; last authenticated by STR DNA profiling in December 2018) were transfected with rat cDNAs (α1, L08490; α6, L08495; β2, X15467; β3, X15468; γ2S, L08497; δ, L08496) in pRK5 plasmids under the control of the cytomegalovirus promoter (Uusi‐Oukari et al. 2000), using the calcium phosphate precipitation method essentially as described (Lüddens and Korpi 1997). The plasmids were used in 1 : 1 and 1 : 1 : 1 ratios for transfections containing 2 [(α1 or α6) + (β2 or β3)] or 3 [(α1 or α6) + (β2 or β3) + (γ2S or δ)] different subunits, respectively (5 μg of each plasmid DNA for a 10 cm plate). Mock transfection was done using 5 μg pRK5 plasmid backbone. The cells were harvested 48 h after transfection. Culture medium was removed and the cells were detached from the plates by pipetting in ice‐cold assay buffer containing 2 mM EDTA. The cells were homogenized (Ultra Turrax, 20 s at 9500 rpm), the homogenates centrifuged at 20 000 g for 10 min at +4°C, and washed once with the same buffer. The homogenates were finally suspended in assay buffer (1 mL/plate) and either used directly to binding assays or stored frozen at −70°C.
The binding of [^3H]muscimol (5 nM) was measured in assay buffer at 22°C in a total volume of 300 μL. […] Air‐dried filters were immersed in 3 mL of Optiphase HiSafe 3 scintillation fluid (Wallac, Turku, Finland) and radioactivity determined in a Wallac model 1410 liquid scintillation counter (Wallac, Turku, Finland). […]
(§1) The tubes were mixed and incubations at 22°C were terminated at various time points (30 s – 30 min) as described above. Dissociation of [^3H]muscimol from recombinant receptors in HEK cell membranes was also measured at 0–4°C (on ice) to evaluate how fast [^3H]muscimol dissociates from receptors while washing the filter with ice‐cold assay buffer during filtration.

Assay [2] deals with cerebellar membranes of δKO mice. The assay is described as follows: Saturation analysis of [^3H]muscimol binding, δKO cerebellar membranes. The arrangement: species or system mouse. The note with it: 0°C. The protocol:
(§2) WT and δKO forebrain and cerebellar membranes were prepared using a modification of the method of Squires and Saederup (2000) essentially as described by Uusi‐Oukari et al. (2014). […] forebrain along with midbrain region was homogenized into 10 mM Tris‐HCl, pH 8.0 buffer containing 2 mM EDTA, using an Ultra‐Turrax T25 (Janke & Kunkel IKA labortechnik) for 20 s at 9500 rpm. The homogenates were centrifuged at 20 000 g for 10 min at +4°C and the resulting pellets were washed three times by resuspension and re‐centrifugation with 10 mM Tris‐HCl, pH 8.5 buffer containing 0.2 M NaCl, and 5 mM EDTA. The resulting pellets were then suspended in ice‐cold H2O and centrifuged. The pellets were again washed three times with Tris, pH 8.5/NaCl/EDTA as described above. The resulting pellets were finally suspended in assay buffer consisting of 50 mM Tris‐base, pH adjusted to 7.4 with citric acid, and frozen at −70°C. Before a binding experiment, the suspension was thawed, centrifuged, and suspended in assay buffer.
(§3) Saturation analysis of [^3H]muscimol to WT and δKO mouse forebrain and cerebellar membranes was performed essentially as described by Uusi‐Oukari and Korpi (1989). […] The incubations were terminated as described above.

The target of assay [3] is forebrain membranes of δKO mice. The assay is described as follows: Saturation analysis of [^3H]muscimol binding, δKO forebrain membranes. The conditions noted are these: 0°C. Also noted: species or system mouse. The protocol: as §2, §3
Assay [4] addresses forebrain membranes of WT mice. The assay is described as follows: [^3H]muscimol binding kinetics, WT forebrain membranes. The arrangement: species or system mouse. Here is the method:
as §2
The binding of [^3H]muscimol (5 nM) was measured in assay buffer at 22°C in a total volume of 300 μL. Triplicate technical replicates of mouse forebrain (190–215 μg protein), cerebellar (180–210 μg protein) or HEK cell (92–132 μg protein) membranes for each time point were incubated with shaking for various times (15 s–15 min) to measure association of the binding. […] Air‐dried filters were immersed in 3 mL of Optiphase HiSafe 3 scintillation fluid (Wallac, Turku, Finland) and radioactivity determined in a Wallac model 1410 liquid scintillation counter (Wallac, Turku, Finland). […]
as §1

The mark [5] stands for this setting: room temperature (22°C), 5 nM [^3H]muscimol.

T1 sequence (P30191 20-453): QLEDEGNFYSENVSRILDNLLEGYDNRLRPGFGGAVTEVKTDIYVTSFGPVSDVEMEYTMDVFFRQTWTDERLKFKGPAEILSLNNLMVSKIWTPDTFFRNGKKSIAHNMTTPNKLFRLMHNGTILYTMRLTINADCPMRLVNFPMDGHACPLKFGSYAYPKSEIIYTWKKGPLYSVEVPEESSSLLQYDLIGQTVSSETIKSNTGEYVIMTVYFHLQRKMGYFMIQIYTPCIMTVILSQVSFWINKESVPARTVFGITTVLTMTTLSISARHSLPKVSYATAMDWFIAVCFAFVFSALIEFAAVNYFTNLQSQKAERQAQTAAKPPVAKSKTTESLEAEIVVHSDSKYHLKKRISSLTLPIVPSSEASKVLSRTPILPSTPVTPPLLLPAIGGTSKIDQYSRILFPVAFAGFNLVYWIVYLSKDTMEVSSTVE
T1 sequence (P63079 26-473): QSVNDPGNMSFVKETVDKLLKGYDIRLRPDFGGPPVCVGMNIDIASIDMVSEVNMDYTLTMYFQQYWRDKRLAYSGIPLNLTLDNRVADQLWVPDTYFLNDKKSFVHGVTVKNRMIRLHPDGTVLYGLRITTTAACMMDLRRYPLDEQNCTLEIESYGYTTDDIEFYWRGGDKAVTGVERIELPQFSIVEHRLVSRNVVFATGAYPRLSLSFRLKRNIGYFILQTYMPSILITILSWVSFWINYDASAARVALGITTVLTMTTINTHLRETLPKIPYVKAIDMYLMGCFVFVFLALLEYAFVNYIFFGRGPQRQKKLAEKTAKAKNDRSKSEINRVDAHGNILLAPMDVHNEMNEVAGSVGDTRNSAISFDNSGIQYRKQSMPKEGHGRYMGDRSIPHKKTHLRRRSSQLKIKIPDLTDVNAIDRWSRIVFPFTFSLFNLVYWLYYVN
T1 sequence (P18506 25-449 partner): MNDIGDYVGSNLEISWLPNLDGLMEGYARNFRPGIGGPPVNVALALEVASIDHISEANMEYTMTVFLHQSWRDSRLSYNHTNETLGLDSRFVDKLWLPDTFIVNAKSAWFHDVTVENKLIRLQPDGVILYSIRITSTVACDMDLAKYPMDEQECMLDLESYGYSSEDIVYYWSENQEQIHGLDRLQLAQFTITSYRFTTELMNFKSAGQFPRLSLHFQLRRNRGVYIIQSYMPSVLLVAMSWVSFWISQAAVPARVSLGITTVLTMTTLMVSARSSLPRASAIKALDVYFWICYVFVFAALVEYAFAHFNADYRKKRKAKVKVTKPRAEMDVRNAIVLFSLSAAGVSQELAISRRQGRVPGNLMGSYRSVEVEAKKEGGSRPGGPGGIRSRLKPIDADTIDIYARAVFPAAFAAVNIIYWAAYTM

Regarding `NCc1cc(=O)[nH]o1` [[^3H]muscimol] [[Methylene‐^3H]muscimol], the Kd is 0.72 nM in assay [1] (22°C, K D = koff/kon) and 1.6 nM in assay [4] (22°C, K D = koff/kon). The values for the k off in assay [1] (room temperature (22°C)) and in assay [4] (room temperature (22°C)) were 0.13 ± 0.01 ^### min^−1 and 0.00883 ± 0.00033 s⁻¹, respectively. Besides, the k on in assay [1] (setting [5]) was 1.8 ± 0.1 × 10^8, ^### M^−1 × min^−1; in assay [4] (setting [5]), 3.3 ± 0.2 × 10^8 M^−1 × min^−1. Also, the “Apparent pKD” value in assay [2] stood at 8.15 ± 0.02; in assay [3], 7.68 ± 0.05.
